The conditions of assay [1]: diabetic animal model; cited from earlier work.
For assay [2] the following is noted: obese, insulin resistant rhesus monkeys, cited from earlier work.
For assay [3], the target named is T1, human PPARdelta (Homo sapiens, UniProt Q03181).
T1 construct: amino acids S139-Y441; expressed in transfected cells
T1 sequence (Q03181 139-441): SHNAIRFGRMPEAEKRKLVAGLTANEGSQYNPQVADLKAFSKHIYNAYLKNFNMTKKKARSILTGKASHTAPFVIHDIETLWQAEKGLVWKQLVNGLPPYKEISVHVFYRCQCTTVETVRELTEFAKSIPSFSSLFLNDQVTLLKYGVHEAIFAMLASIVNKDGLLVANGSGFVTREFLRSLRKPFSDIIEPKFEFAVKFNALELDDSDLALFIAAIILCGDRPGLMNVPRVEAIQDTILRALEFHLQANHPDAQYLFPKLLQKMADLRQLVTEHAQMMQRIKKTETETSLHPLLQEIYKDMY
Put plainly: Cellular PPARdelta assay (luciferase reporter, stably transfected HEK cell line). It counts as cell-based. To be noted: GR-GAL4-humanPPARdelta-LBD. On the procedure: The activity of PPARalpha agonists is determined in a 3-day assay which is described below:
The PPARalpha reporter cell line is cultivated to 80% confluence in DMEM (#41965-039, Invitrogen) which is mixed with the following additions: 10% cs-FCS (fetal calf serum; #SH-30068.03, Hyclone), 0.5 mg/ml zeocin (#R250-01, Invitrogen), 0.5 mg/ml G418 (#10131-027, Invitrogen), 1% penicillin-streptomycin solution (#15140-122, Invitrogen) and 2 mM L-glutamine (#25030-024, Invitrogen). The cultivation takes place in standard cell culture bottles (#353112, Becton Dickinson) in a cell culture incubator at 37° C. in the presence of 5% CO2. The 80%-confluent cells are washed once with 15 ml of PBS (#14190-094, Invitrogen), treated with 3 ml of trypsin solution (#25300-054, Invitrogen) at 37° C. for 2 min, taken up in 5 ml of the DMEM described and counted in a cell counter. After dilution to 500.000 cells/ml, 35,000 cells are seeded in each well of a 96 well microtiter plate with a clear plastic base (#3610, Corning Costar). The plates are incubated in the cell culture incubator at 37° C. and 5% CO2 for 24 h.
PPARalpha Agonists to be Tested are Dissolved in DMSO in a Concentration of 10 mM. This stock solution is diluted in DMEM (#41965-039, Invitrogen) which is mixed with 5% cs-FCS (#SH-30068.03, Hyclone), 2 mM L-glutamine (#25030-024, Invitrogen) and the previously described antibiotics (zeocin, G418, penicillin and streptomycin). Test substances are tested in 11 different concentrations in the range from 10 μM to 100 pM.
The medium of the PPARalpha reporter cell line seeded on day 1 is completely removed by aspiration, and the test substances diluted in medium are immediately added to the cells. The dilution and addition of the substances is carried out by a robot (Beckman FX). The final volume of the test substances diluted in medium is 100 μl per well of a 96 well microtiter plate. The DMSO concentration in the assay is less than 0.1% v/v in order to avoid cytotoxic effects of the solvent.
The assay plates are incubated in an incubator at 37° C. and 5% CO2 for 24 h.
The PPARalpha reporter cells treated with the test substances are removed from the incubator, and the medium is aspirated off. The cells are lyzed by pipetting 50 μl of Bright Glo reagent (from Promega) into each well of a 96 well microtiter plate. After incubation at room temperature in the dark for 10 minutes, the microtiter plates are measured in the luminometer (Trilux from Wallac). The measuring time for each well of a microtiter plate is 1 sec.
The raw data from the luminometer are transferred into a Microsoft Excel file. Dose-effect plots and EC50 values of PPAR agonists are calculated using the XL.Fit program as specified by the manufacturer (IDBS).
The potency of substances which bind to human PPARdelta and activate it in an agonistic manner is analyzed using a stably transfected HEK cell line (HEK=human embryo kidney) which is referred to here as PPARdelta reporter cell line. In analogy to the assay described for PPARalpha, the PPARdelta reporter cell line also contains two genetic elements, a luciferase reporter element (pdeltaM-GAL4-Luc-Zeo) and a PPARdelta fusion protein (GR-GAL4-humanPPARdelta-LBD) which mediates expression of the luciferase reporter element depending on a PPARdelta ligand. The stably and constitutively expressed fusion protein GR-GAL4-humanPPARdelta-LBD binds in the cell nucleus of the PPARdelta reporter cell line via the GAL4 protein portion to the GAL4 DNA binding motifs 5′-upstream of the luciferase reporter element which is stably integrated in the genome of the cell line. There is only little expression of the luciferase reporter gene in the absence of a PPARdelta ligand if fatty acid-depleted fetal calf serum (cs-FCS) is used in the assay. PPARdelta ligands bind and activate the PPARdelta fusion protein and thereby stimulate expression of the luciferase reporter gene. […]
(In general: A reporter such as luciferase makes a cellular process visible.)

For assay [4] the following is noted: cynomolgus monkeys; cited from earlier work.
The conditions of assay [5]: two weeks clinical trials in healthy volunteers; cited from earlier work.
For assay [6] the following is noted: rhesus monkeys; cited from earlier work.

In general, EC50 refers to the midpoint of the concentration-response curve.

Molecules are shown by their SMILES. Like-named read-outs stand apart in the source and are kept apart here.

For the compound `CCCc1c(OCCCOc2ccc(OCC(=O)O)cc2)ccc(C(C)=O)c1O` [Example L-165041], the plasma cholesterol entry in assay [1] is reported as “raises”.

Turning to `Cc1cc(SCc2sc(-c3ccc(C(F)(F)F)cc3)nc2C)ccc1OCC(=O)O` [GW501516], in assay [2] (plasma), the insulin levels result is listed as “decreases” and the triglycerides entry is listed as “decreases”. For the same compound, in assay [2], the HDL-cholesterol result is “raises” and the “plasma LDL-cholesterol” value is recorded as “decreases”.

Turning to `CCOc1cc(C(F)(F)F)ccc1C(=O)NCCc1ccc(S(=O)(=O)Nc2nnc(C(C)C)s2)cc1` [Example 16, 2-Ethoxy-N-{2-[4-(5-isopropyl-[1,3,4]thiadiazol-2-ylsulfamoyl)-phenyl]-ethyl}-4-trifluoromethyl-benzamide], the EC50 in assay [3] came to 46 nM.

As to `CCCc1c(OCCCSc2nnc(SCC(=O)O)s2)ccc(C(C)=O)c1O` [YM-16638], the results for the plasma lipids result in assay [4], in assay [5] and in assay [6] were “significantly lowers”, “acts in a similar manner” and “significantly lowers”, respectively.
